The values below come from patent US20250057791A1, “PROTECTION AGAINST ARTHROPOD PARASITES WITH PURINERGIC RECEPTOR (OPR) ANTAGONISTS” (priority 2021, published 2025).

Each structure is given as a SMILES string. Where “and” joins values, the source holds several entries; their conditions need not be identical. Equal values may be shown once.

In assay [1] the test system is A. gambiae. Kind of assay: Membrane feeding assay, A. gambiae. To be noted: for ID95 in μM (±s.e.m.): feeding on 20 μM ATP in the feeding solution; for effect on feeding on solution containing ATP, in words: 20 μM ATP, CPT at 10 μM. It counts as in vivo, Anopheles gambiae.
For assay [2], the system named is Glossina pallidipes. Kind of assay: Membrane feeding assay, tsetse fly Glossina pallidipes. It counts as in vivo. As to conditions: for effect on feeding, compound in solution containing ATP, in words: doses as in Table 10. As to the method: Flies of both species were transferred 30 min before feeding experiments to feeding cages as used for mosquitoes at 24° C., 80% RH in an environmental cabinet. Teneral tsetse were fed at 2 to 4 days old during the photophase with between 7 and 13 flies per feeding cage, covered with a black cloth. Horn flies were tested at 1 and 2 days old in the photophase with between 6 and 21 flies per cage. Both fly species were fed using small Hemotek feeding reservoirs (29 mm diameter, 1 ml) equipped with a membrane as for mosquitoes. Horn flies were fed for 15 min with feeding reservoirs placed on the cage. For tsetse, cages were closed with black mosquito netting at the bottom to allow flies to feed through the membrane placed under the cage. Feeding time (1.5 to 6 min) for tsetse was adjusted as a function of age to achieve at least 30% feeding on the positive control included in each feeding experiment. The positive control for both fly species contained 150 mM NaCl, 8.9 mM NaHCO3 with 100 μM ATP added, hereafter termed fly feeding solution (FFS). The pH of the FFS was adjusted as for ticks. The effect of TMP on feeding by G. pallidipes was also tested at 16 μg TMP/cm^2 dissolved in 140 μl hexane and applied homogeneously to the membrane surface using a micropipette. Hexane was used to treat the membrane with TMP to avoid the test compound being dispersed by fly wing-fanning. Flies of both species were activated just prior to feeding on a treatment by exhalation into the cage. Tsetse that had fed were identified with swollen abdomens and counted at the end of a feeding experiment. Since it was difficult to ascertain by eye whether a horn fly had fed on a treatment, 10 μl/ml of blue food colorant (No. 4866908, Trawosa AG, St. Gallen, Switzerland) was added. This facilitated the detection of ingested liquid when the abdomen of flies, killed by freezing, was squashed onto filter paper. Only experiments in which the feeding rate by flies was >30% on the positive control were included in analyses.
Uptake of TFS containing PR antagonists, converted to mg/h for hard ticks and weight gains in mg/25 min for soft ticks, was compared to TFS uptake in the corresponding positive controls. […] For tsetse and horn flies the percentage flies that fed per antagonist treatment served as the criterion for inhibition of feeding. As horn fly sexes emerged within 24 h, both sexes were assumed to show the same degree of appetence. In tsetse, males emerged first so a gender-related appetence could not be excluded. No sex-related feeding differences in feeding were found for testse (GLM, P>0.05) so data for the sexes were pooled. Comparisons of percentage fed flies were made using a Bayesian GLM—the most appropriate model considering the zero-inflated distributions shown by the data sets. […] P-values were corrected using Holm's FWEC in multiple comparisons of data for each tick and fly species.

Take `Nc1ncnc2c1ncn2[C@@H]1O[C@H](COP(=O)(O)OP(=O)(O)OP(=O)(O)O)[C@@H](O)[C@H]1O` [ATP, Adenosine 5′-triphosphate]: the “% fed mosquitoes (mean ± s.e.m.), ATP [20 μM]” value in assay [1] (20 μM ATP alone, positive control of the antagonist) is 66.12% and 65.96% and 64.49% and 69.12% and 69.68% and 64.2% and 70.2% and 67.6%. For the same compound, the “% Engorged mosquitoes” value in assay [1] (20 μM in feeding solution) came to 67.5 ± 2.1%. For the same compound, in assay [1] (22.5 μM ATP), the “% feeding at the ED95” value worked out at 68.15%. In addition, in assay [1] (45 μM ATP), the “% mosquitoes fed at the asymptote” value turned out to be 70.25%. Further, the “asymptote dose of feeding response” value in assay [1] (dose dependent feeding) was found to be 45 µM. Moreover, the “ED95, feeding stimulant” value in assay [1] (dose dependent feeding on feeding solution) is 22500 nM.
Regarding `Cc1ccc(C(=O)Nc2ccc(S(=O)(=O)O)c3cc(S(=O)(=O)O)cc(S(=O)(=O)O)c23)cc1NC(=O)c1cccc(NC(=O)Nc2cccc(C(=O)Nc3cc(C(=O)Nc4ccc(S(=O)(=O)O)c5cc(S(=O)(=O)O)cc(S(=O)(=O)O)c45)ccc3C)c2)c1` [Suramin], in assay [1] (antagonist 1 μM + 20 μM ATP), the “% fed mosquitoes (mean ± s.e.m.), ATP + antagonist” value (“% fed mosquitoes … ATP + antagonist” for short) is 34.86%. For the same compound, the “ID95 in μM (±s.e.m.)” value in assay [1] was found to be 1.36 µM. For the same compound, the “% Fed, Median” value in assay [2] (FFS + 50 μM) was 45.5%.
Take `O=C(O)c1cc(C(=O)O)c(C(=O)N(Cc2cccc(Oc3ccccc3)c2)[C@H]2CCCc3ccccc32)cc1C(=O)O` [A-317491, 5-[(3-phenoxyphenyl)methyl-[(1S)-1,2,3,4-tetrahydronaphthalen-1-yl]carbamoyl]benzene-1,2,4-tricarboxylic acid]: in assay [1], the “effect on feeding on solution containing ATP, in words” value is recorded as “inhibited feeding”. The “% fed mosquitoes … ATP + antagonist” value in assay [1] (antagonist 1 nM + 20 μM ATP) worked out at 43.71%. For the same compound, the “% Fed, Median” value in assay [2] (FFS + 1 μM) came to 22.5%. In assay [2], the “effect on feeding, compound in solution containing ATP, in words” value is on record as “inhibited feeding”.
Take `Cc1nc(C)c(C)nc1C` [TMP, 2,3,5,6-tetramethylpyrazine]: the “% Engorged mosquitoes” value in assay [1] (7.5 μM TMP + 20 μM ATP + 200 μM Adenosine) was 36.7 ± 6.0%. In assay [1], the “effect on feeding on solution containing ATP, in words” value is listed as “inhibited feeding” and the “ID95 in μM (±s.e.m.)” value was 1.28 µM. Moreover, the “% fed mosquitoes … ATP + antagonist” value in assay [1] (antagonist 10 nM + 20 μM ATP) is recorded as 50.47%. In addition, the “% Fed, Median” value in assay [2] (FFS + 16 μg/cm^2 on membrane) was determined as 40%. Besides, in assay [2] (FFS + 150 μM), the “% Fed, Median” value is 66.7%. Besides, the “effect on feeding, compound applied onto the feeding membrane, in words” value in assay [2] (dose as in Table 10) is recorded as “significantly inhibited feeding”. Besides, in assay [2], the “effect on feeding, compound in solution containing ATP, in words” value is on record as “failed to inhibit feeding”.
